These results are taken from US20240116951A1, “HETEROCYCLIC COMPOUNDS AND USES THEREOF” (Kumquat Biosciences Inc., priority 2022, published 2024).

Common to all, as to assay type: binding
For one test, the target named is T1, KRAS WT (Homo sapiens, UniProt P01116).
T1 construct: made in house; host or cells: E. coli, e.g. BL21 (DE3)
Briefly: HTRF assay of wildtype K-Ras interaction with SOS1 (PPI-HTRF). The settings on record: HTRF, 5 nM KRAS WT; read-out: PPI-HTRF-5 nM KRAS WT. The text has this:
(§1) This assay can be also used to assess a selective inhibition or reduction of signaling output of a mutant Ras protein relative to a wildtype, or relative to a different mutant Ras protein. For example, the equilibrium interaction of wildtype Kras or K-Ras mutant (e.g., wildtype or a mutant thereof including those mentioned in Example 4) with SOS1 (e.g., hSOS1) can be assessed as a proxy or an indication for a subject compound's ability to bind and inhibit Ras protein. HTRF assay detects from (i) a fluorescence resonance energy transfer (FRET) donor (e.g., antiGST-Europium) that is bound to GST-tagged K-Ras mutant to (ii) a FRET acceptor (e.g., anti-6His-XL665) bound to a His-tagged hSOS1.
(§2) The assay buffer can contain ˜5 mM HEPES pH 7.4, ˜150 mM NaCl, ˜1 mM DTT, 0.05% BSA and 0.0025% (v/v) Igepal. A Ras working solution is prepared in an assay buffer containing typically a suitable amount of the protein construct (e.g., GST-tagged K-Ras mutant) and the FRET donor (e.g., antiGST-Eu(K) from Cisbio, France). A SOS1 working solution is prepared in an assay buffer containing suitable amount of the protein construct (e.g., His-hSOS1) and the FRET acceptor (e.g., anti-6His-XL665 from Cisbio, France). A suitable amount of the protein construct will depend on the range of activity or range of IC50 values being detected or under investigation. For detecting IC50 within a range of 500 nM, the protein constructs of the same range of molarity can be utilized. […] A fixed volume of DMSO with or without test compound is transferred into a 384-well plate. Ras working solution is added to all wells of the test plate. SOS1 working solution is added to all wells except for those that are subsequently filled the inhibitor control solution. Upon incubation for about 10 minutes or longer, the fluorescence is measured with a M1000Pro plate reader (Tecan) using HTRF detection (excitation 337 nm, emission 1: 620 nm, emission 2: 665 nm). Compounds are tested in duplicates at different concentrations (for example, 10 μM, 2.5 μM, 0.63 μM, 0.16 μM, 0.04 μM, 0.01 μM test compound). The ratiometric data (i.e., emission 2 divided by emission 1) is used to calculate IC50 values against Ras using GraphPad Prism (GraphPad software). Following this general procedure, samples were tested with or without a subject compound disclosed herein including compounds exemplified in Table 1 to assess their abilities to inhibit a mutant K-Ras relative to another mutant K-Ras or wildtype K-Ras. Signaling output measured in terms of IC50 values can be obtained, a ratio of IC50 against one mutant relative to another mutant can be calculated. For instance, a selective reduction of K-Ras G12D signaling output can be evidenced by a ratio greater than one. In particular, a selective reduction of K-Ras G12D signaling relative to K-Ras WT signaling is evidenced as the ratio of IC50 (against K-Ras WT) to IC50 (against K-Ras G12D) is greater than 1.

Another test deals with T2, KRAS G12S (Homo sapiens, UniProt P01116, G12S).
T2 construct: made in house; host or cells: E. coli, e.g. BL21 (DE3)
T2 sequence (P01116 1-188 isoform P01116-2 G12S): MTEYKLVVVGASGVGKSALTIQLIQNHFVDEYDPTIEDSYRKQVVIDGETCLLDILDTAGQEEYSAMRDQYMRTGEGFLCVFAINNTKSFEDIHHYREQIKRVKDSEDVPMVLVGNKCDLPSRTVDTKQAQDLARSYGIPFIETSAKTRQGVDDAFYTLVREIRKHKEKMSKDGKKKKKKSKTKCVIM
The test is described as follows: HTRF assay of K-Ras G12S interaction with SOS1 (PPI-HTRF). Particulars: 5 nM KRAS G12S, read-out: PPI-HTRF-5 nM KRAS G12S.
Text: as §1, §2
A general note: Time-resolved FRET reads energy transfer from a long-lived donor to a nearby acceptor.

The next test deals with T3, KRAS G12D (Homo sapiens, UniProt P01116, G12D).
T3 construct: made in house; host or cells: E. coli, e.g. BL21 (DE3)
T3 sequence (P01116 1-188 isoform P01116-2 G12D): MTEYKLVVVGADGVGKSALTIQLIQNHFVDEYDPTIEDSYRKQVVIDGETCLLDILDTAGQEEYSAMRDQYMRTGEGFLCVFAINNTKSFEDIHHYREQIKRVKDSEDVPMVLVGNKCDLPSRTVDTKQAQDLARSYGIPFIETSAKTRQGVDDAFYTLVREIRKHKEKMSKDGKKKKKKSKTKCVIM
Briefly: HTRF assay of K-Ras G12D interaction with SOS1 (PPI-HTRF). The settings on record: HTRF, 5 nM KRAS G12D; read-out: PPI-HTRF-5 nM KRAS G12D.
Text: as §1, §2

T1 sequence (P01116 1-188 isoform P01116-2): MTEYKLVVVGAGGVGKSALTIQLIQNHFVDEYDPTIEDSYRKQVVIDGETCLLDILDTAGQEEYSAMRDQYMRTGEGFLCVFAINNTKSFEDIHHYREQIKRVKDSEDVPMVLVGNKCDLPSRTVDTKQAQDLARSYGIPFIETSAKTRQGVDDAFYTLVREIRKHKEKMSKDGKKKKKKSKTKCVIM

Turning to `N#Cc1c(N)sc2c(F)ccc(-c3c(Cl)cc4c(N5CCC6(CCN6C(=O)n6cnc(Cl)n6)C5)nc(OC[C@@]56CCCN5C[C@H](F)C6)nc4c3F)c12` (stereo partly drawn) [Compound 312, 2-amino-4-(6-chloro-4-(1-(3-chloro-1H-1,2,4-triazole-1-carbonyl)-1,6-diazaspiro[3.4]octan-6-yl)-8-fluoro-2-(((2R,7aS)-2-fluorotetrahydro-1H-pyrrolizin-7a(5H)-yl)methoxy)quinazolin-7-yl)-7-fluorobenzo[b]thiophene-3-carbonitrile], the IC50 at KRAS WT, on KRAS G12S and on KRAS G12D was below 5 µM in each case.
Regarding `N#Cc1c(N)sc2c(F)ccc(-c3c(Cl)cc4c(N5CCCCC6(CCCN6C(=O)n6cncn6)C5)nc(OC[C@@]56CCCN5C[C@H](F)C6)nc4c3F)c12` (mixture of isomers) [Compound 349, 4-(4-(1-(1H-1,2,4-triazole-1-carbonyl)-1,7-diazaspiro[4.6]undecan-7-yl)-6-chloro-8-fluoro-2-(((2R,7aS)-2-fluorotetrahydro-1H-pyrrolizin-7a(5H)-yl)methoxy)quinazolin-7-yl)-2-amino-7-fluorobenzo[b]thiophene-3-carbonitrile], the IC50 at KRAS WT, on KRAS G12S and on KRAS G12D was below 5 µM each time.
Turning to `Nc1nc2c(-c3c(Cl)cc4c(N5CCCC6(CCN6)C5)nc(OC[C@@]56CCCN5C[C@H](F)C6)nc4c3F)ccc(F)c2s1` (stereo partly drawn) [Compound 202, 4-(6-chloro-8-fluoro-2-(((2R,7aS)-2-fluorotetrahydro-1H-pyrrolizin-7a(5H)-yl)methoxy)-4-(1,6-diazaspiro[3.5]nonan-6-yl)quinazolin-7-yl)-7-fluorobenzo[d]thiazol-2-amine], the IC50 at KRAS WT, on KRAS G12S and on KRAS G12D was below 5 µM each time.
For the compound `C[C@H](Oc1nc(N2CCC3(CCCN3C(=O)n3cncn3)C2)c2cc(Cl)c(-c3ccc(F)c4sc(N)c(C#N)c34)c(F)c2n1)[C@@H]1CCCN1C` (stereo partly drawn) [Compound 241, 4-(4-(1-(1H-1,2,4-triazole-1-carbonyl)-1,7-diazaspiro[4.4]nonan-7-yl)-6-chloro-8-fluoro-2-((S)-1-((S)-1-methylpyrrolidin-2-yl)ethoxy)quinazolin-7-yl)-2-amino-7-fluorobenzo[b]thiophene-3-carbonitrile], the IC50 at KRAS WT, on KRAS G12S and at KRAS G12D was below 5 µM in each case.
Turning to `N#Cc1c(N)sc2c(F)ccc(-c3c(Cl)cc4c(N5CCC6(CCN6C(=O)C(Cl)Cl)C5)nc(OC[C@@]56CCCN5C[C@H](F)C6)nc4c3F)c12` (stereo partly drawn) [Compound 347, 2-amino-4-(6-chloro-4-(1-(2,2-dichloroacetyl)-1,6-diazaspiro[3.4]octan-6-yl)-8-fluoro-2-(((2R,7aS)-2-fluorotetrahydro-1H-pyrrolizin-7a(5H)-yl)methoxy)quinazolin-7-yl)-7-fluorobenzo[b]thiophene-3-carbonitrile], the IC50 on KRAS WT, on KRAS G12S and at KRAS G12D was below 5 µM throughout.
Turning to `Nc1nc2c(-c3c(Cl)cc4c(N5CCC6(CCN6)CC5)nc(OC[C@@]56CCCN5C[C@H](F)C6)nc4c3F)ccc(F)c2s1` [Compound 265, 4-(6-chloro-8-fluoro-2-(((2R,7aS)-2-fluorotetrahydro-1H-pyrrolizin-7a(5H)-yl)methoxy)-4-(1,7-diazaspiro[3.5]nonan-7-yl)quinazolin-7-yl)-7-fluorobenzo[d]thiazol-2-amine], the IC50 is below 5 µM on KRAS WT, above 5 µM on KRAS G12S and below 5 µM on KRAS G12D.
For `Nc1nc2c(-c3c(Cl)cc4c(N5CC6(CNCCN6)C5)nc(OC[C@@]56CCCN5C[C@H](F)C6)nc4c3F)ccc(F)c2s1` [Compound 205, 4-(6-chloro-8-fluoro-2-(((2R,7aS)-2-fluorotetrahydro-1H-pyrrolizin-7a(5H)-yl)methoxy)-4-(2,5,8-triazaspiro[3.5]nonan-2-yl)quinazolin-7-yl)-7-fluorobenzo[d]thiazol-2-amine], the IC50 at KRAS WT, at KRAS G12S and on KRAS G12D was below 5 µM each time.
`CC(C)c1ncn(C(=O)N2CCC23CCN(c2nc(OC[C@@]45CCCN4C[C@H](F)C5)nc4c(F)c(-c5ccc(F)c6sc(N)c(C#N)c56)c(Cl)cc24)C3)n1` (stereo partly drawn) [Compound 304, 2-amino-4-(6-chloro-8-fluoro-2-(((2R,7aS)-2-fluorotetrahydro-1H-pyrrolizin-7a(5H)-yl)methoxy)-4-(1-(3-isopropyl-1H-1,2,4-triazole-1-carbonyl)-1,6-diazaspiro[3.4]octan-6-yl)quinazolin-7-yl)-7-fluorobenzo[b]thiophene-3-carbonitrile]: the IC50 at KRAS WT, on KRAS G12S and at KRAS G12D was below 5 µM throughout.
On to `Nc1nc2c(-c3c(Cl)cc4c(N5CCC6(CCN6C(=O)n6cncn6)C5)nc(OC[C@@]56CCCN5C[C@H](F)C6)nc4c3F)ccc(F)c2s1` (stereo partly drawn) [Compound 264, (6-(7-(2-amino-7-fluorobenzo[d]thiazol-4-yl)-6-chloro-8-fluoro-2-(((2R,7aS)-2-fluorotetrahydro-1H-pyrrolizin-7a(5H)-yl)methoxy)quinazolin-4-yl)-1,6-diazaspiro[3.4]octan-1-yl)(1H-1,2,4-triazol-1-yl)methanone], for which the IC50 on KRAS WT, at KRAS G12S and on KRAS G12D was below 5 µM each time.
As for `N#Cc1c(N)sc2c(F)ccc(-c3c(Cl)cc4c(N5CCCC6(CCN6C(=O)n6cncn6)C5)nc(OC[C@@]56CCCN5C[C@H](F)C6)nc4c3F)c12` (stereo partly drawn) [Compound 275, 4-(4-(1-(1H-1,2,4-triazole-1-carbonyl)-1,6-diazaspiro[3.5]nonan-6-yl)-6-chloro-8-fluoro-2-(((2R,7aS)-2-fluorotetrahydro-1H-pyrrolizin-7a(5H)-yl)methoxy)quinazolin-7-yl)-2-amino-7-fluorobenzo[b]thiophene-3-carbonitrile], the IC50 on KRAS WT, at KRAS G12S and on KRAS G12D was below 5 µM each time.
Turning to `N#Cc1c(N)sc2c(F)ccc(-c3c(Cl)cc4c(N5CCC6(CCCN6C(=O)C6CC6(F)F)C5)nc(OC[C@@]56CCCN5C[C@H](F)C6)nc4c3F)c12` (stereo partly drawn) [Compound 217, 2-amino-4-(6-chloro-4-(1-(2,2-difluorocyclopropane-1-carbonyl)-1,7-diazaspiro[4.4]nonan-7-yl)-8-fluoro-2-(((2R,7aS)-2-fluorotetrahydro-1H-pyrrolizin-7a(5H)-yl)methoxy)quinazolin-7-yl)-7-fluorobenzo[b]thiophene-3-carbonitrile], the IC50 on KRAS WT, at KRAS G12S and at KRAS G12D was below 5 µM in each case.
Regarding `C[C@H]1CN(C(=O)n2cnc(Br)n2)[C@]12CCN(c1nc(OC[C@@]34CCCN3C[C@H](F)C4)nc3c(F)c(-c4ccc(F)c5sc(N)c(C#N)c45)c(Cl)cc13)C2` [Compound 224, 2-amino-4-(4-((3S,4R)-1-(3-bromo-1H-1,2,4-triazole-1-carbonyl)-3-methyl-1,6-diazaspiro[3.4]octan-6-yl)-6-chloro-8-fluoro-2-(((2R,7aS)-2-fluorotetrahydro-1H-pyrrolizin-7a(5H)-yl)methoxy)quinazolin-7-yl)-7-fluorobenzo[b]thiophene-3-carbonitrile], the IC50 at KRAS WT, at KRAS G12S and on KRAS G12D was below 5 µM throughout.
Take `C=CC(=O)N1CC[C@@]12CCN(c1nc(OC[C@@]34CCCN3C[C@H](F)C4)nc3c(F)c(-c4ccc(F)c5sc(N)c(C#N)c45)c(Cl)cc13)C2` [Compound 291]: the IC50 on KRAS WT, at KRAS G12S and at KRAS G12D was below 5 µM throughout.
